Consider twelve compounds from ChEMBL document CHEMBL3580533, “Antagonism/Agonism modulation to build novel antihypertensives selectively triggering i1-imidazoline receptor activation” (ACS Med Chem Lett, 2015).

Activity calls are given as the source filed them. No cut-off for these calls is given here.

What is called Ki is the dissociation constant of the complex between target and ligand, obtained from inhibition or displacement. Higher therefore signals a looser hold on the target. The term pKi denotes −log10 of the Ki, conventionally taken in molar units. The low end stands for a high Ki, the high end for a low Ki. The inhibition in vivo is the relative decrease from the control value, in per cent.

One experiment concerns the target Nischarin (Rattus norvegicus, UniProt Q4G017). Briefly: Displacement of [125I]-p-iodoclonidin from I1-imidazoline receptor in rat PC12 cell membranes. More on the design: species or system PC-12. In general terms: In a radioligand displacement assay an active substance lowers the binding of a labelled ligand.
Experiment [1] addresses T1, Adrenergic receptor alpha-2 (Rattus norvegicus, UniProt P22086+P19328+P22909).
T1 sequence (P22086 whole entry): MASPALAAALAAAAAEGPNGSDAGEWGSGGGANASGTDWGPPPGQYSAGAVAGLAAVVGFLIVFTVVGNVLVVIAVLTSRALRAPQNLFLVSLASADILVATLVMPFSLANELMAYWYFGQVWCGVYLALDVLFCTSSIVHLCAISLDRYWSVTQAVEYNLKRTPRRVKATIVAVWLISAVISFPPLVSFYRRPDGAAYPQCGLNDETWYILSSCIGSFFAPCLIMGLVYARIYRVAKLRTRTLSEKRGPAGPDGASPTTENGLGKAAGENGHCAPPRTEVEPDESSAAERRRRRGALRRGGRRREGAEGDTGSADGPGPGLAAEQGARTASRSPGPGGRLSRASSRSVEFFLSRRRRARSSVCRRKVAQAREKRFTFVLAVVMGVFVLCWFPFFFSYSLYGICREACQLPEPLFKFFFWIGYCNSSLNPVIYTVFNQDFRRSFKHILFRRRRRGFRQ
T1 sequence (P19328 whole entry): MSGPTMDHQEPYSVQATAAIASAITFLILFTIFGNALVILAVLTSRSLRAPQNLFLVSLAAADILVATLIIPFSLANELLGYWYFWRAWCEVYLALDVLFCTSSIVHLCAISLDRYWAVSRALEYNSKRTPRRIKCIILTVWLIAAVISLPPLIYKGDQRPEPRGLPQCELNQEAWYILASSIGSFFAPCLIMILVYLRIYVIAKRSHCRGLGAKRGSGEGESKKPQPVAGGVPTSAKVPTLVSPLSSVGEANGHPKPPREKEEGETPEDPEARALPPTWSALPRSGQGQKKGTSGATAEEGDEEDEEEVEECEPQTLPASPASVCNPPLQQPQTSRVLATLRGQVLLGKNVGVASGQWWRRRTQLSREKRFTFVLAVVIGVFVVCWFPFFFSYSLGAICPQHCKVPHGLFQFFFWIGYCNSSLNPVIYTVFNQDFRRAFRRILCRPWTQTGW
T1 sequence (P22909 whole entry): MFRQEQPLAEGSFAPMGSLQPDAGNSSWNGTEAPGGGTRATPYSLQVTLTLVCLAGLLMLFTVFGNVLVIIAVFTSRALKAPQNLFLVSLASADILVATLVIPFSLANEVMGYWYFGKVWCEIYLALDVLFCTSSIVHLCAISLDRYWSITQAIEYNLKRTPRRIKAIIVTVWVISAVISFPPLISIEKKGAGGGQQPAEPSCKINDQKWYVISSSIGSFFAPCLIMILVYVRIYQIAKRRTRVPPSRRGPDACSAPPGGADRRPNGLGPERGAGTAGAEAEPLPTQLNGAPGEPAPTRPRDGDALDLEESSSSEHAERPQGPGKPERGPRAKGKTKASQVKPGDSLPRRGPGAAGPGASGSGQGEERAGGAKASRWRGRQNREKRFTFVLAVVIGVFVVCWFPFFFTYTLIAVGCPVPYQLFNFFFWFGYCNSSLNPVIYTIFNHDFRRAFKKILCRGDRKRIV
Briefly: Displacement of [3H]-clonidine from alpha2 adrenoreceptor in rat cortex membranes. It counts as cell membranes.

Experiment [2] has as its system Rattus norvegicus. Briefly: Reduction in heart rate in spontaneously hypertensive rat at 30 mg/kg, ip administered as single dose and measured 30 mins post dose by tail-cuff plethysmography. It counts as functional. The conditions noted are these: 0.5 h.
The test system of experiment [3] is Rattus norvegicus. The experiment is described as follows: Reduction in mean arterial blood pressure in spontaneously hypertensive rat at 30 mg/kg, ip administered as single dose and measured 60 mins post dose by tail-cuff plethysmography. It counts as functional. The conditions noted are these: 1 h.
The test system of experiment [4] is Rattus norvegicus. The experiment is described as follows: Reduction in heart rate in spontaneously hypertensive rat at 30 mg/kg, ip administered as single dose and measured 120 mins post dose by tail-cuff plethysmography. It counts as functional. The conditions noted are these: 2 h.
Experiment [5] relates to Rattus norvegicus. Briefly: Reduction in heart rate in spontaneously hypertensive rat at 30 mg/kg, ip administered as single dose and measured 60 mins post dose by tail-cuff plethysmography. It counts as functional. The settings on record: 1 h.
The next experiment concerns PC-12. Briefly: Selectivity ratio, […]-imidazoline receptor in rat PC12 cell membranes to […] adrenoreceptor in rat cortex membranes. It counts as cell-based.
The subject of experiment [6] is Rattus norvegicus. Briefly: Reduction in mean arterial blood pressure in spontaneously hypertensive rat at 30 mg/kg, ip administered as single dose and measured 30 mins post dose by tail-cuff plethysmography. It counts as functional. The settings on record: 0.5 h.
In experiment [7] the test system is Rattus norvegicus. Briefly: Reduction in mean arterial blood pressure in spontaneously hypertensive rat at 30 mg/kg, ip administered as single dose and measured 120 mins post dose by tail-cuff plethysmography. It counts as functional. The conditions noted are these: 2 h.
For experiment [8], the system named is Rattus norvegicus. The experiment is described as follows: Reduction in mean arterial blood pressure in spontaneously hypertensive rat at 30 mg/kg, ip administered as single dose and measured 30 to 120 mins post dose pre-treated with 30 mg/kg, ip 2-(1-phenylpropan-2-yl)-4,5-dihydro-1H-imidazole by tail-cuff plethysmography. It counts as functional, organism-based.

Chain of Nischarin (Q4G017 whole entry): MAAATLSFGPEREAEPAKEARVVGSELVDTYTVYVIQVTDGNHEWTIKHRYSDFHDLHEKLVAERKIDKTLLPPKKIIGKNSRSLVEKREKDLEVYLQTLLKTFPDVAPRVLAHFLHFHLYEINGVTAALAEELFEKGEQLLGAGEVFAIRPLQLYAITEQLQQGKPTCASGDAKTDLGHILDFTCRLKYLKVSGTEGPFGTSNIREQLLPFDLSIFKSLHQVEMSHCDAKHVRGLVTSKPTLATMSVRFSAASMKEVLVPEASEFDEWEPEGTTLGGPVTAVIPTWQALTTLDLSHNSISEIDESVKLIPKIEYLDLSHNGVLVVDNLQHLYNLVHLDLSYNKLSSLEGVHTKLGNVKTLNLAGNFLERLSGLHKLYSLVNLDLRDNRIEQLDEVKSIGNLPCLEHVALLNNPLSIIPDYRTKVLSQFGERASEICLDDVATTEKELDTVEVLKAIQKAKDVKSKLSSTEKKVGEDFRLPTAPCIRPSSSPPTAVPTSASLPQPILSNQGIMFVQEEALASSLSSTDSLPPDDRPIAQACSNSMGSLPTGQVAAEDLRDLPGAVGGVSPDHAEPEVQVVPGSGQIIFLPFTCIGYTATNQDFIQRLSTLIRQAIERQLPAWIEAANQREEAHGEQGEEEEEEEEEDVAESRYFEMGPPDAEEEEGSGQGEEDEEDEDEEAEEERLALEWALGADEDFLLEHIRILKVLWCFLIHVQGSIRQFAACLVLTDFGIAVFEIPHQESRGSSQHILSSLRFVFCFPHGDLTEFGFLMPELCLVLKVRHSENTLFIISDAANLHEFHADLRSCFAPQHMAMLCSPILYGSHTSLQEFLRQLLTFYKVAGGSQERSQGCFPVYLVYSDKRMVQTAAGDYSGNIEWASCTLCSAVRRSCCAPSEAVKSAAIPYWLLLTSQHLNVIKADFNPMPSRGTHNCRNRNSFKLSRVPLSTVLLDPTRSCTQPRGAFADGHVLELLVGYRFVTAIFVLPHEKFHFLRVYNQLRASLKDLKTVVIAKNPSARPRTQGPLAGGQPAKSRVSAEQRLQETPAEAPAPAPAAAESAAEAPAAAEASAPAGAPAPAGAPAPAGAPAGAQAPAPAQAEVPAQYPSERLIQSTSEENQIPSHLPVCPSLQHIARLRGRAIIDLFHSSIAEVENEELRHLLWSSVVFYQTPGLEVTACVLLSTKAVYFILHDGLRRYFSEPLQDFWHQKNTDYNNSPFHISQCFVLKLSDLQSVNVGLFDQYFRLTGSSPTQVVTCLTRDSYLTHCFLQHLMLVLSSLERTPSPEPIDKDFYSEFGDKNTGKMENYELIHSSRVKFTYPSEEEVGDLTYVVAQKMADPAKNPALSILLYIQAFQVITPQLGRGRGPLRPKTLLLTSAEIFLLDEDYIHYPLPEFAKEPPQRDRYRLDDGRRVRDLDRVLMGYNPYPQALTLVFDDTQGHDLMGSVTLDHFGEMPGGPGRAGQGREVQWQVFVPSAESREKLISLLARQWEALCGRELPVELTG

`CC(Cc1ccccc1-c1cccnc1)C1=NCCN1` (stereo not drawn) had a Ki on Nischarin of more than 1000 nM. In addition, the pKi in experiment [1] was less than 6.
Regarding `CC(Cc1ccccc1-c1ccccc1)C1=NCCN1` (stereo not drawn), the inhibition in vivo at 30 mg/kg came out at 14.2% in the experiment on Rattus norvegicus [2]; 25.4% in the experiment on Rattus norvegicus [3]; 11.9% in the experiment with Rattus norvegicus [4]; 13.8% in the experiment with Rattus norvegicus [5]; 27.6% in the experiment on Rattus norvegicus [6]; 34.9% in the experiment on Rattus norvegicus [7]. This compound also showed a Ki at Nischarin of 155 nM. Further, in experiment [1], the pKi is recorded as 4.1. Also, the Ratio with PC-12 is 513.
Regarding `CC(Oc1ccccc1)C1=NCCN1` (stereo not drawn), on Nischarin, the affinity, expressed as Ki, was 309 nM.
For the compound `Cc1ccccc1CC(C)C1=NCCN1` (stereo not drawn), the inhibition in vivo at 30 mg/kg amounted to 11.7% in the experiment with Rattus norvegicus [2]; 29.7% in the experiment with Rattus norvegicus [3]; 7.66% with Rattus norvegicus [4]; 13.6% with Rattus norvegicus [5]; 32.4% in the experiment with Rattus norvegicus [6]; 53.1% in the experiment on Rattus norvegicus [7]. The Ki on Nischarin is 23.4 nM. This compound also had a pKi in experiment [1] of less than 6. Also, the inhibition result in the experiment on Rattus norvegicus [8] was “inactive”.
Consider `C[C@@H](Cc1ccccc1-c1ccccc1)C1=NCCN1`, for which affinity at Nischarin was put at a Ki of 97.7 nM.
Take `CC(Cc1ccccc1Cl)C1=NCCN1` (stereo not drawn): the inhibition in vivo at 30 mg/kg came out at 11.1% in the experiment on Rattus norvegicus [2]; 31.4% in the experiment with Rattus norvegicus [3]; 8.02% in the experiment with Rattus norvegicus [4]; 11.6% with Rattus norvegicus [5]; 37.8% in the experiment with Rattus norvegicus [6]; 32.4% in the experiment on Rattus norvegicus [7]. Also, the Ki at Nischarin was 195 nM. In experiment [1], the pKi is given as less than 6.
With `Cc1ccccc1C[C@@H](C)C1=NCCN1`, the inhibition in vivo at 30 mg/kg in the experiment on Rattus norvegicus [2] came out at 9.17%; with Rattus norvegicus [3], 12.7%; with Rattus norvegicus [4] it was 0%; in the experiment on Rattus norvegicus [5], 4.18%; in the experiment on Rattus norvegicus [6], 8.67%; with Rattus norvegicus [7] it was 3.01%. At Nischarin, this compound showed a Ki of 1050 nM. The compound also displayed a pKi in experiment [1] of less than 6.
At Nischarin, `C[C@H](Cc1ccccc1-c1ccccc1)C1=NCCN1` showed a Ki of 2240 nM.
On the same count and under the same terms, for `CC(Oc1ccccc1-c1ccccc1)C1=NCCN1` (stereo not drawn) [BIPHENYLINE] the value was 126 nM.
For the compound `Cc1ccccc1C[C@H](C)C1=NCCN1`, the inhibition in vivo at 30 mg/kg was 12% with Rattus norvegicus [2]; 26% with Rattus norvegicus [3]; 5.89% in the experiment with Rattus norvegicus [4]; 11.1% in the experiment on Rattus norvegicus [5]; 34.4% in the experiment on Rattus norvegicus [6]; 7.85% in the experiment with Rattus norvegicus [7]. Moreover, at Nischarin, the Ki was 13.2 nM. Also, the pKi in experiment [1] was less than 6.
Turning to `CC(Cc1ccccc1-c1cccc(O)c1)C1=NCCN1` (stereo not drawn), the inhibitory constant (Ki) at Nischarin is more than 1000 nM. This compound also registered a negative-log Ki (pKi) in experiment [1] of less than 6.
For `CC(Cc1ccccc1-c1ccsc1)C1=NCCN1` (stereo not drawn), the inhibition in vivo at 30 mg/kg is 26.4% with Rattus norvegicus [2]; 35.1% in the experiment on Rattus norvegicus [3]; 11.2% in the experiment on Rattus norvegicus [4]; 19.7% with Rattus norvegicus [5]; 24.8% with Rattus norvegicus [6]; 10.8% in the experiment on Rattus norvegicus [7]. Besides, the Ki on Nischarin is 63.1 nM. The pKi in experiment [1] was less than 6.
